One data set deals with T1, HCV NS3-NS4A protease (Hepatitis C virus genotype 1b, UniProt P26663).
T1 construct: made in house
The data set is described as follows: HCV Protease Assay (SensoLyte 620 HCV Protease Assay kit). It counts as biochemical. The conditions noted are these: 1.2 nM HCV NS3-NS4A protease, 60 min at room temperature, 5% DMSO. The gist of the method: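 Protease at 1.2 nM, run with the SensoLyte 620 fluorogenic kit under supplier conditions, with compounds at several concentrations in buffer with 5% final DMSO. Reactions ran 60 min at room temperature before fluorescence reading; IC50 from four-parameter sigmoidal fit of percent inhibition.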

Data set [1] deals with Huh-7 cells containing HCV Con1 subgenomic replicon (GS4.1 cells). The data set is described as follows: HCV Replicon Assay (NS4A ELISA). It counts as cell-based. The following applies: Hepatitis C virus, Huh-7, 72 hr, NS4A protein by ELISA. A digest of the protocol: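 GS4.1 cells (Huh-7 with HCV Con1 subgenomic replicon) given ten 2-fold compound dilutions (top 75 μM) or a single 15 μM dose in 0.5% DMSO for 72 h at 37 °C. NS4A measured by cell ELISA (A492); EC50 from four-parameter sigmoidal fit, single-dose results as % inhibition at 15 μM.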
(In general: A replicon is a self-replicating genome or part of one, used to study replication in cells.)

Data set [2] can be described thus: Cytotoxicity evaluation (Cell Titer 96 AQueous One Solution Cell Proliferation Assay). It counts as cell-based. The conditions noted are these: human; GS4.1 cells, cellular viability. How it is done:
(§1) For cytotoxicity evaluation, GS4.1 cells were treated with compounds as described above and cellular viability was monitored using the Cell Titer 96 AQueous One Solution Cell Proliferation Assay (Promega). CC50 values were determined from the % cytotoxicity versus concentration data with Tecan Magellan software as described above.

The subject of a further data set is genotype 1b replicon. The data set is described as follows: Antiviral activity in a genotype 1b replicon assay. It counts as cell-based, HCV. The following applies: Hepatitis C virus. How it is done:
General procedure: Huh-7 cells containing HCV Con1 subgenomic replicon (GS4.1 cells) were grown in Dulbecco's Modified Eagle Medium (DMEM) supplemented with 10% fetal bovine serum (FBS), 2 mM L-glutamine, 110 mg/L sodium pyruvate, 1× non-essential amino acids, 100 U/mL penicillin-streptomycin, and 0.5 mg/mL G418 (Invitrogen). For dose-response testing, the cells were seeded in 96-well plates at 7.5×10^3 cells/well in a volume of 50 μL, and incubated at 37° C./5% CO2. Three hours after plating, 50 μL of ten 2-fold serial dilutions of compounds (highest concentration, 75 μM) were added, and cell cultures were incubated at 37° C./5% CO2 in the presence of 0.5% DMSO. Alternatively, compounds were tested at a single concentration of 15 μM. In all cases, Huh-7 cells lacking the HCV replicon served as negative control. The cells were incubated in the presence of compounds for 72 hr after which they were monitored for expression of the NS4A protein by enzyme-linked immunosorbent assay (ELISA). For this, the plates were then fixed for 1 min with acetone/methanol (1:1, v/v), washed twice with phosphate-buffered saline (PBS), 0.1% Tween 20, blocked for 1 hr at room temperature with TNE buffer containing 10% FBS and then incubated for 2 hr at 37° C. with the anti-NS4A mouse monoclonal antibody A-236 (ViroGen) diluted in the same buffer. After washing three times with PBS, 0.1% Tween 20, the cells were incubated 1 hr at 37° C. with anti-mouse immunoglobulin G-peroxidase conjugate in TNE, 10% FBS. After washing as described above, the reaction was developed with O-phenylenediamine (Zymed). The reaction was stopped after 30 min with 2 NH2SO4, and absorbance was read at 492 nm using Sunrise Tecan spectrophotometer. EC50 values were determined from the % inhibition versus concentration data using a sigmoidal non-linear regression analysis based on four parameters with Tecan Magellan software. When screening at a single concentration, the results were expressed as % inhibition at 15 μM.
(§2) Compounds were tested in a genotype 1b replicon assay as described in Example 32 and the results are summarized in Table 6, wherein A represents a value smaller than 1 μM, and B represents a value between 1 μM to 10 μM, C represents a value between 10 μM to 75 μM and D represents a value greater than 75 μM.

Data set [3] in a line: Cytotoxicity (CC50) in the genotype 1b replicon assay. The following applies: human, genotype 1b replicon assay as described in Example 32. It counts as cell-based. How it is done:
as §1, §2

For data set [4], the system named is HCV genotype 2a infectious virus. The data set can be described thus: HCV genotype 2a infectious virus assay. It counts as cell-based, HCV (strain JFH-1; genotype 2a). The conditions noted are these: Hepatitis C virus. How it is done:
Compounds were tested in a HCV genotype 2a infectious virus assay and the results are summarized in Table 7, wherein A represents a value smaller than 1 μM, and B represents a value between 1 μM to 10 μM, C represents a value between 10 μM to 75 μM and D represents a value greater than 75 μM.
The HCV in vitro infection core ELISA assay measures the ability of a test compound to inhibit replication of an infectious HCV (strain JFH-1; genotype 2a) in cell culture. […] We have developed this model for determining the efficacy of antiviral compounds against an infectious virus in vitro using HCV producing cells (HPC), a proprietary Huh-7-derived cell sublineage capable of propagating the JFH-1 HCV virus. The readout of the assay is quantification of HCV core protein by ELISA 5 days post infection with JFH-1 virus and treatment with a test compound.
Ninety-six-well Corning Costar plates were seeded with HPC cells at a density of 3.0×10^3 cells per well in 50 μL of Huh-7 media. Compound stock solutions were made up freshly in Huh-7 media (DMEM (containing glucose, L-glutamine and sodium pyruvate), 10% FBS, 100 IU/mL penicillin, 100 μg/mL streptomycin, 2 mM GlutaMAX, 1% MEM non-essential amino acids) as 2× stock. Seven additional 3-fold drug dilutions were prepared from the 2× stocks in Huh-7 media. At least 4 hours after HPC cells were seeded, the media in the 96-well culture plates was aspirated and 50 μL of each drug dilution and 50 μL of JFH-1 HCV was added to each well.
At 16 hrs post treatment and infection, the virus inoculum was removed by aspiration. The cultures were treated at the same final concentrations of drug diluted to 1× in Huh-7 media to a final volume of 200 μL. Cells were incubated in the presence of drug for 4 additional days at 37° C./5% CO2.
Media was removed from the plates by aspiration. Cells were fixed with 250 μL 1:1 acetone:methanol for 90 seconds, washed once in PBS and then three times with 1×KPL wash solution. The assay plates were then blocked with 150 μL/well 10% FBS-TNE (50 mM Tris-HCl (pH 7.5; Sigma), 100 mM NaCl, 1 mM EDTA with 10% FBS) for 1 hr at room temperature. Cells were washed three times with 1×KPL wash solution and incubated with 100 μL/well anti-hepatitis C core mAb (1 mg/mL stock diluted 1:500 in 10% FBS-TNE) for 2 hours at 37° C. Cells were washed three times with 1×KPL wash solution and incubated with 100 μL/well HRP-goat anti-mouse antibody (diluted 1:2,500 in 10% FBS-TNE) for 1 hr at 37° C.
OPD solution was prepared using 1 OPD tablet+12 mL citrate/phosphate buffer (16 mM citric acid, 27 mM Na2HPO4) plus 5 μL 30% H2O2 per plate. Cells were washed three times with 1×KPL wash solution and developed with 100 μL/well OPD solution for 30 minutes in the dark at room temperature. The reaction was stopped with 100 μL/well of 2NH2SO4, and absorbance measured at A490 nm in a Victor^3 V 1420 multilabel counter (Perkin Elmer). The EC50 values for each compound were calculated from dose response curves from the resulting best-fit equations determined by Microsoft Excel and XLfit 4.1 software. The negative control for inhibition of virus replication was untreated HPC cells infected with the JFH-1 HCV virus strain. The negative ELISA control was untreated, uninfected HPC cells. The positive ELISA control was untreated HPC cells infected the JFH-1 HCV virus strain.

In the next data set the test system is mutant protease R155Q. The data set is described as follows: Resistance profile, mutant protease R155Q. It counts as biochemical, HCV. The conditions noted are these: ratio of inhibitory activity against mutant enzyme over non-mutant enzyme. How it is done: (§3) General procedure: Measurement of the inhibitory effect of compounds on HCV protease activity was performed with the SensoLyte™ 620 HCV Protease Assay kit from AnaSpec, Inc. (San Jose, Calif.) under conditions described by the supplier using 1.2 nM HCV NS3-NS4A protease, which was obtained according to Taremi et al. (Protein Science, 1998, 7, 2143-2149). The compounds were tested at a variety of concentrations in assay buffer containing a final DMSO concentration of 5%. Reactions were allowed to proceed for 60 min at room temperature and fluorescence measurements were recorded with a Tecan Infinity Spectrofluorimeter. The IC50 values were determined from the percent inhibition versus concentration data using a sigmoidal non-linear regression analysis based on four parameters with Tecan Magellan software.
(§4) Compounds were evaluated against three mutant proteases R155Q, A156S, and D168A, as summarized in Table 8, wherein A represents a value smaller than 1, and B represents a value between 1 to 10, and C represents a value greater than 10. The fold of change in inhibitory activity was determined by measuring the ratio of the inhibitory activity of a compound against a mutant enzyme over the inhibitory activity of the same compound against non-mutant enzyme. The inhibitory activity was determined using the procedure as described in Example 31.

In another data set the test system is mutant protease A156S. The data set is described as follows: Resistance profile, mutant protease A156S. It counts as biochemical, HCV. The following applies: ratio of inhibitory activity against mutant enzyme over non-mutant enzyme. How it is done: as §3, §4
The subject of the next data set is mutant protease D168A. The data set can be described thus: Resistance profile, mutant protease D168A. It counts as biochemical, HCV. The conditions noted are these: ratio of inhibitory activity against mutant enzyme over non-mutant enzyme. How it is done: as §3, §4
Setting [5] is: genotype 1b replicon assay as described in Example 32, read-out: EC50.

Read-outs that look alike come from different tables or passages of the source.

T1 sequence (P26663 1027-1208): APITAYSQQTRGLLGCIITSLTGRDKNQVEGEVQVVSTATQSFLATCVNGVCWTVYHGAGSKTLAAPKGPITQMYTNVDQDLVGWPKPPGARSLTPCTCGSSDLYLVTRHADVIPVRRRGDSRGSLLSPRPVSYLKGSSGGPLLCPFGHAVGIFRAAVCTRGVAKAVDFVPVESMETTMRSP

One may read the IC50 as the midpoint of a concentration-inhibition curve. Lower therefore signals higher potency. By EC50 is commonly meant the midpoint of the concentration-response curve. Broadly, the CC50 is the concentration giving 50% cytotoxicity. Low readings indicate greater toxicity to the cells, high ones lower toxicity to the cells. On to `COc1ccc2c(O[C@H]3C[C@H]4C(=O)N(C)CCCC/C=C\[C@@H]5C[C@@]5(C(=O)NS(=O)(=O)C5(C)CC5)NC(=O)N4C3)cc(-c3nc(C(C)C)cs3)nc2c1C` [Compound 56b, (Z)-(4R,6S,15S,17S)-[17-[7-methoxy-8-methyl-2-(4-isopropylthiazol-2-yl)quinolin-4-yloxy]-13-N-methyl-2,14-dioxo-1,3,13-triazatricyclo[13.3.0.0]octadec-7-en-4-yl]carbonyl(1-methyl-cyclopropyl)sulfonamide], for which the IC50 at HCV NS3-NS4A protease was < 1000 nM. Besides, the EC50 in data set [1] is < 1000 nM; with genotype 1b replicon (setting [5]), < 1000 nM; in data set [4], 1000 to 10000 nM. Further, the CC50 was > 75000 nM in data set [2] and 10000 to 75000 nM in data set [3]. Also, in the data set on mutant protease R155Q, the “Fold-Change R155Q” value is reported as “A (A represents a value smaller than 1)”. In addition, the “Fold-Change A156S” value in the data set on mutant protease A156S is on record as “A (A represents a value smaller than 1)”. In addition, the “Fold-Change D168A” value with mutant protease D168A was “C (C represents a value greater than 10)”.

Consider `COc1ccc2c(O[C@H]3C[C@H]4C(=O)N(C)CCCC/C=C\[C@@H]5C[C@@]5(C(=O)NS(=O)(=O)C5(C)CC5)NC(=O)N4C3)cc(-c3nc(C(C)C)cs3)nc2c1Cl` [Compound 56d, (Z)-(4R,6S,15S,17S)-[17-[8-chloro-7-methoxy-2-(4-isopropylthiazol-2-yl)quinolin-4-yloxy]-13-N-methyl-2,14-dioxo-1,3,13-triazatricyclo[13.3.0.0]octadec-7-en-4-yl]carbonyl(1-methyl-cyclopropyl)sulfonamide], for which the IC50 against HCV NS3-NS4A protease is < 1000 nM. For the same molecule, the EC50 (in data set [1]; in the data set on genotype 1b replicon; in data set [4]) was < 1000 nM in each case. Moreover, the cytotoxic concentration (CC50) in data set [2] is > 75000 nM; in [3] (GS4.1 cells), 10000 to 75000 nM. The “Fold-Change R155Q” value in the data set on mutant protease R155Q was “A (A represents a value smaller than 1)”. Also, the “Fold-Change A156S” value in the data set on mutant protease A156S is “A (A represents a value smaller than 1)”. In the data set on mutant protease D168A, the “Fold-Change D168A” value was “C (C represents a value greater than 10)”.

Take `COc1ccc2c(O[C@H]3C[C@H]4C(=O)N(C)CCCC/C=C\[C@@H]5C[C@@]5(C(=O)NS(=O)(=O)C5CC5)NC(=O)N4C3)cc(-n3ccc(C(F)(F)F)n3)nc2c1Cl` [Compound 91e, (Z)-(4R,6S,15S,17S)-[17-[8-chloro-7-methoxy-2-(3-trifluoromethyl-1H-pyrazol-1-yl)quinolin-4-yloxy]-13-N-methyl-2,14-dioxo-1,3,13-triazatricyclo[13.3.0.0]octadec-7-ene-4-yl]carbonyl(cyclopropyl)sulfonamide]: the IC50 at HCV NS3-NS4A protease is < 1000 nM. Also, the half-maximal effective concentration (EC50) (in data set [1]; in the data set with genotype 1b replicon (setting [5]); in [4]) was < 1000 nM each time. Further, the CC50 was > 75000 nM in data set [2] and 10000 to 75000 nM in [3] (GS4.1 cells). Further, the “Fold-Change R155Q” value with mutant protease R155Q was “A (A represents a value smaller than 1)”. Also, the “Fold-Change A156S” value with mutant protease A156S was “A (A represents a value smaller than 1)”. Moreover, the “Fold-Change D168A” value in the data set with mutant protease D168A is “C (C represents a value greater than 10)”.

The values are drawn from patent US8003659B2, “Macrocyclic serine protease inhibitors” (Indenix Pharmaceuticals, Inc., priority 2008, dated 2011).
